This is an account of results in patent US8440638B2, “Compositions and methods for modulating calcium flux, glucose homeostasis and apoptosis” (Wisconsin Alumni Research Foundation, priority 2004, dated 2013).

This assay deals with TRPM2-expressing HEK-293 cells. Nature of the assay: Cell viability assay (calcein fluorescence), tet-inducible TRPM2 HEK-293 cells. Format: cell-based. As to the method: Shown are HEK-293 cells (closed diamond) and HEK-293 cells stably transfected with a tet-controlled TRPM2 construct in the presence (open squares) or absence of (open diamonds) tetracycline. […] TRPM2-expressing HEK-293 cells were grown in complete DMEM media and 1 μg/ml tetracycline until 80-90% confluent. One set of cells were re-fed with the same complete media (closed diamonds) and the other set of cells were rinsed with PBS and fed with modified media containing 1 μg/ml tetracycline, 5 mM EGTA and without calcium chloride (open squares). […] HEK-293 (close diamond) and TRPM2 expressing HEK-293 cells in the absence (open diamond) or presence of (closed square) tetracycline were exposed to 0-10 μg/ml cycloheximide for 16 h. Cell viability was determined as described in (a).
TRPM2-expressing HEK-293 cells were exposed to 0-50 μM puromycin for 16 h in the presence (open diamond) or absence (closed diamond) of 500 μM nicotinamide. […] TRPM2-expressing HEK-293 cells were exposed to 0-50 μM puromycin for 16 h in the presence (open diamond) or absence (closed diamond) of 1.5 mM 3-aminobenzamide. Cell survival was determined as described in (a).
HEK-293 and tetracycline (tet)-inducible HEK-293 TRPM2-expressing cells (23) were cultured in DMEM and 10% FBS at 37° C., 5% CO2. Media used to culture tet-inducible HEK-293 cells was supplemented with blasticidin (5 μg ml^−1; Invitrogen) and zeocin (0.4 mg/ml; Invitrogen). To induce expression of TRPM2 in recombinant HEK-293 cells, tetracycline was added to the media at 1 μg ml^−1 (Invitrogen) 24 h prior to experiments. The CRI-G1 rat β-islet tumor cell line was obtained from EACC and cultured in DMEM, 10% FBS and 2 mM glutamine.
HEK-293, tet-inducible HEK-293, and CRI-G1 cells were seeded into 6 well plates at a density of 500,000 cells per well. When cells were 50-70% confluent, puromycin was added to the media at various concentrations for 16 hours. Cell monolayers were rinsed with PBS, after which 0.5 ml of 2 μM calcein in PBS was added directly to the well for 10-20 minutes. Calcein is retained in living, but not dead cells, where it undergoes catalytic conversion into a fluorescent compound Fluorescence in each well was measured in a microplate reader using excitation and emission filters at 485/530 nm, respectively.

For the compound `COc1ccc(C[C@H](N)C(=O)N[C@H]2[C@@H](O)[C@H](n3cnc4c(N(C)C)ncnc43)O[C@@H]2CO)cc1` [puromycin], the “puromycin-induced cell death in Ca2+-free media” value (Ca2+ removed (5 mM EGTA) before puromycin 0-500 μM, 6 h) is “completely blocked”. In addition, the “puromycin-dependent cell death, TRPM2 not induced” value (TRPM2 expression not induced by tet) is “nearly complete protection”. For the same compound, under “not induced by tet, 50 μM puromycin”, the “puromycin-dependent cell death, TRPM2 not induced, highest level” value is “Some cell death”. For the same compound, the “cell death following puromycin treatment” value (tet-induced TRPM2 expression, as little as 5 μM, dose-dependence up to 50 μM, 16 h) is listed as “profound sensitivity to cell death”.
